Assay results reported in ChEMBL document CHEMBL1137996, “Design, synthesis, and activity of 4-quinolone and pyridone compounds as nonthiol-containing farnesyltransferase inhibitors” (Bioorg Med Chem Lett, 2004).

Assays:
[1] = biological target: Protein farnesyltransferase (Bos taurus, UniProt P29702+P49355); experiment: Inhibition of Bovine farnesyltransferase (FTase); format: protein-complex assay
[2] = biological target: Geranylgeranyl transferase type I (Bos taurus, UniProt P29702+Q5EAD5); experiment: Inhibition of Bovine geranylgeranyltransferase (GGT); format: protein-complex assay
[3] = biological target: T1, Protein farnesyltransferase (Mus musculus, UniProt Q61239+Q8K2I1); experiment: Inhibition of Ras farnesylation in H-Ras transformed NIH3T3 cells at 100 nM; format: functional, cell-based
[4] = biological target: T1, Protein farnesyltransferase; experiment: Inhibition of Ras farnesylation in H-Ras transformed NIH3T3 cells; format: functional, cell-based

Structure (SMILES) | IC50 [1] [nM] | IC50 [2] [nM] | Inhibition [3] [%] | Inhibition ([3]; nih3t3) [%] | EC50 [4] [nM] | EC50 ([4]; nih3t3) [nM]
Cn1cncc1C(NC(=O)c1cn(C)c(=O)cc1-c1cccc(Cl)c1)c1ccc(C#N)cc1 (stereo unspecified) | 685 |  |  |  |  | 
Cn1cncc1C(O)(c1ccc(Cl)cc1)c1ccc2c(=O)c(C#N)cn(-c3cccc(Cl)c3)c2c1 (stereo unspecified) | 12 | 16000 | 51 |  |  | 
Cn1cncc1C(OCc1cc(=O)c(C#N)cn1-c1cccc(Cl)c1)c1ccc(C#N)cc1 (stereo unspecified) | 12 | > 10000 |  | 4 |  | 
NC(=O)N1CCC(CC(=O)N2CCC([C@H]3c4ncc(Br)cc4CCc4cc(Cl)cc(Br)c43)CC2)CC1 [LONAFARNIB] | 8.3 | > 10000 |  |  | 100 | 
Cn1cncc1[C@@](N)(c1ccc(Cl)cc1)c1ccc2c(c1)c(-c1cccc(Cl)c1)cc(=O)n2C [TIPIFARNIB] |  |  |  |  |  | 1.6

Continued, in another order:

IC50 [1] [nM] | IC50 [2] [nM] | Inhibition [3] [%] | Inhibition ([3]; nih3t3) [%] | Structure (SMILES) | EC50 [4] [nM] | EC50 ([4]; nih3t3) [nM]
7.9 | > 10000 |  |  | N#Cc1ccc(Cn2cncc2CNCc2cc(=O)c(C#N)cn2-c2cccc(Cl)c2)cc1 |  | 
17 | > 10000 | 21 |  | Cn1c(CNCc2cncn2Cc2ccc(C#N)cc2)c(-c2cccc(Cl)c2)cc(C#N)c1=O |  | 
